In US20230151025A1, “SUBSTITUTED THIAZOLOPYRIDINES, SALTS THEREOF AND THEIR USE AS HERBICIDALLY ACTIVE SUBSTANCES” (Bayer Aktiengesellschaft, priority 2020, published 2023):

Key:
Format in all cases: in vivo
[1] = tested on: Veronica persica (VERPE); experiment: Herbicidal post-emergence action (B), 1280 g/ha
Outline: (§1)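 Compounds formulated as wettable powder or emulsion concentrate, with 0.5% additive, sprayed at 600 l/ha onto one-leaf-stage plants grown in sandy loam for 2 to 3 weeks. Damage rated visually against untreated plants roughly 3 weeks later; 0% = like control, 100% = plants died.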

[2] = tested on: Stellaria media (STEME); experiment: Herbicidal post-emergence action (B), 1280 g/ha
Outline: as §1

[3] = tested on: Amaranthus retroflexus (AMARE); experiment: Herbicidal post-emergence action (B), 1280 g/ha; settings: rated visually after about 3 weeks vs untreated controls
Outline: as §1

[4] = tested on: Abutilon theophrasti (ABUTH); experiment: Herbicidal post-emergence action (B), 1280 g/ha; settings: rated visually after about 3 weeks vs untreated controls
Outline: as §1

[5] = tested on: Digitaria sanguinalis (DIGSA); experiment: Herbicidal post-emergence action (B), 1280 g/ha; settings: rated visually after about 3 weeks vs untreated controls
Outline: as §1

[6] = tested on: Kochia scoparia (KCHSC; Bassia scoparia); experiment: Herbicidal post-emergence action (B), 1280 g/ha
Outline: as §1

[7] = tested on: Matricaria inodora (MATIN); experiment: Herbicidal post-emergence action (B), 1280 g/ha; settings: rated visually after about 3 weeks vs untreated controls
Outline: as §1

[8] = tested on: Setaria viridis (SETVI); experiment: Herbicidal pre-emergence action (A), 1280 g/ha; settings: visual grading after ca. 3 weeks vs untreated controls
Outline: (§2)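 Visual percent damage scored about 3 weeks after treatment relative to untreated pots (100% = complete kill, 0% = no effect). Compounds, as wettable powder or emulsifiable concentrate plus 0.5% additive in 600 l water/ha, were applied to the soil surface over freshly sown seeds in sandy loam, greenhouse-grown.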

[9] = tested on: Poa annua (POAAN); experiment: Herbicidal pre-emergence action (A), 1280 g/ha; settings: visual grading after ca. 3 weeks vs untreated controls, 100% = plants have died off, 0% = as control plants
Outline: as §2

[10] = tested on: Poa annua (POAAN); experiment: Herbicidal post-emergence action (B), 1280 g/ha; settings: rated visually after about 3 weeks vs untreated controls
Outline: as §1

[11] = tested on: Veronica persica (VERPE); experiment: Herbicidal pre-emergence action (A), 1280 g/ha; settings: visual grading after ca. 3 weeks vs untreated controls
Outline: as §2

[12] = tested on: Stellaria media (STEME); experiment: Herbicidal pre-emergence action (A), 1280 g/ha; settings: visual grading after ca. 3 weeks vs untreated controls
Outline: as §2

[13] = tested on: Amaranthus retroflexus (AMARE); experiment: Herbicidal pre-emergence action (A), 1280 g/ha; settings: visual grading after ca. 3 weeks vs untreated controls
Outline: as §2

[14] = tested on: Lolium rigidum (LOLRI); experiment: Herbicidal pre-emergence action (A), 1280 g/ha; settings: visual grading after ca. 3 weeks vs untreated controls, 100% = plants have died off, 0% = as control plants
Outline: as §2

[15] = tested on: Kochia scoparia (KCHSC; Bassia scoparia); experiment: Herbicidal pre-emergence action (A), 1280 g/ha; settings: visual grading after ca. 3 weeks vs untreated controls
Outline: as §2

[16] = tested on: Polygonum convolvulus (POLCO); experiment: Herbicidal post-emergence action (D), 320 g/ha; settings: ca. 3 weeks
Text: (§3) ABUTH: Abutilon theophrasti AGSTE: Agrostis tenuis ALOMY: Alopecurus myosuroides AMARE Amaranthus retroflexus DIGSA: Digitaria sanguinalis ECHCG: Echinochloa crus-galli KCHSC: Kochia scoparia LOLRI: Lolium rigidum MATIN: Matricaria inodora POAAN: Poa annua POLCO: Polygonum convolvulus SETVI: Setaria viridis STEME: Stellaria media VERPE: Veronica persica VIOTR: Viola tricolor
(§4) Seeds of mono- and dicotyledonous weed plants and crop plants were sown, in plastic or organic planting pots, in sandy loam, covered with soil and grown in a greenhouse under controlled growth conditions. 2 to 3 weeks after sowing, the test plants were sprayed in the single-leaf stage. The compounds according to the invention, formulated in form of wettable powders (WP) or as emulsifiable concentrates (EC), were sprayed onto the green plant parts as aqueous suspension or emulsion, with the addition of 0.5% of an additive, at an application rate of 600 l of water/ha (converted). The test plants were placed in the greenhouse for ca. 3 weeks under optimum growth conditions, and then the effect of the preparations was assessed visually in comparison with untreated controls (herbicidal effect in percent (%): 100% effect=plants have died off, 0% effect=as control plants).
(§5) Tables D1 to D13 below show the effects of selected compounds of the general formula (I) according to table 1 on various harmful plants and an application rate corresponding to 320 g/ha obtained by the experimental procedure mentioned above.

[17] = tested on: Amaranthus retroflexus (AMARE); experiment: Herbicidal post-emergence action (D), 320 g/ha; settings: ca. 3 weeks
Text: as §3, §4, §5

[18] = tested on: Alopecurus myosuroides (ALOMY); experiment: Herbicidal post-emergence action (B), 1280 g/ha; settings: rated visually after about 3 weeks vs untreated controls
Outline: as §1

[19] = tested on: Setaria viridis (SETVI); experiment: Herbicidal post-emergence action (B), 1280 g/ha; settings: rated visually after about 3 weeks vs untreated controls
Outline: as §1

[20] = tested on: Echinochloa crus-galli (ECHCG); experiment: Herbicidal post-emergence action (B), 1280 g/ha; settings: rated visually after about 3 weeks vs untreated controls
Outline: as §1

[21] = tested on: Alopecurus myosuroides (ALOMY); experiment: Herbicidal pre-emergence action (C), 320 g/ha; settings: ca. 3 weeks
Text: as §3
(§6) Seeds of mono- and dicotyledonous weed plants and crop plants were sown, in plastic or organic planting pots, in sandy loam and covered with soil. The compounds according to the invention, formulated in the form of wettable powders (WP) or as emulsifiable concentrates (EC), were applied to the surface of the covering soil as aqueous suspension or emulsion, with the addition of 0.5% of an additive, at an application rate of 600 l of water/ha (converted).
(§7) Following treatment, the pots were placed in a greenhouse and kept under optimum growth conditions for the test plants. The visual grading of the damage to the test plants was carried out after ca. 3 weeks in comparison to untreated controls (herbicidal effect in percent (%): 100% effect=plants have died off, 0% effect=as control plants).
(§8) Tables C1 to C13 below show the effects of selected compounds of the general formula (I) according to table 1 on various harmful plants and an application rate corresponding to 320 g/ha obtained by the experimental procedure mentioned above.

[22] = tested on: Veronica persica (VERPE); experiment: Herbicidal pre-emergence action (C), 320 g/ha; settings: ca. 3 weeks
Text: as §3, §6, §7, §8

[23] = tested on: Setaria viridis (SETVI); experiment: Herbicidal pre-emergence action (C), 320 g/ha; settings: ca. 3 weeks
Text: as §3, §6, §7, §8

[24] = tested on: Amaranthus retroflexus (AMARE); experiment: Herbicidal pre-emergence action (C), 320 g/ha; settings: ca. 3 weeks
Text: as §3, §6, §7, §8

[25] = tested on: Lolium rigidum (LOLRI); experiment: Herbicidal pre-emergence action (C), 320 g/ha; settings: ca. 3 weeks
Text: as §3, §6, §7, §8

[26] = tested on: Echinochloa crus-galli (ECHCG); experiment: Herbicidal pre-emergence action (C), 320 g/ha; settings: ca. 3 weeks
Text: as §3, §6, §7, §8

[27] = tested on: Alopecurus myosuroides (ALOMY); experiment: Herbicidal pre-emergence action (A), 1280 g/ha; settings: visual grading after ca. 3 weeks vs untreated controls, 100% = plants have died off, 0% = as control plants
Outline: as §2

[28] = tested on: Echinochloa crus-galli (ECHCG); experiment: Herbicidal pre-emergence action (A), 1280 g/ha; settings: visual grading after ca. 3 weeks vs untreated controls, 100% = plants have died off, 0% = as control plants
Outline: as §2

[29] = tested on: Digitaria sanguinalis (DIGSA); experiment: Herbicidal pre-emergence action (A), 1280 g/ha; settings: visual grading after ca. 3 weeks vs untreated controls, 100% = plants have died off, 0% = as control plants
Outline: as §2

[30] = tested on: Matricaria inodora (MATIN); experiment: Herbicidal pre-emergence action (A), 1280 g/ha; settings: visual grading after ca. 3 weeks vs untreated controls
Outline: as §2

[31] = tested on: Veronica persica (VERPE); experiment: Herbicidal post-emergence action (D), 320 g/ha; settings: ca. 3 weeks
Text: as §3, §4, §5

[32] = tested on: Setaria viridis (SETVI); experiment: Herbicidal post-emergence action (D), 320 g/ha; settings: ca. 3 weeks
Text: as §3, §4, §5

[33] = tested on: Echinochloa crus-galli (ECHCG); experiment: Herbicidal post-emergence action (D), 320 g/ha; settings: ca. 3 weeks
Text: as §3, §4, §5

[34] = tested on: Alopecurus myosuroides (ALOMY); experiment: Herbicidal post-emergence action (D), 320 g/ha; settings: ca. 3 weeks
Text: as §3, §4, §5

| SMILES | herbicidal effect VERPE [1] [%] | herbicidal effect STEME [2] [%] | herbicidal activity AMARE [3] [%] | herbicidal activity DIGSA [5] [%] | herbicidal effect KCHSC [6] [%] | herbicidal activity MATIN [7] [%] | herbicidal effect SETVI [8] [%] | POAAN, herbicidal effect in percent (%) [9] [%] | herbicidal activity POAAN [10] [%] | herbicidal effect VERPE [11] [%] | herbicidal effect STEME [12] [%] | herbicidal effect AMARE [13] [%] | LOLRI, herbicidal effect in percent (%) [14] [%] | herbicidal effect KCHSC [15] [%] | herbicidal activity ECHCG [20] [%] | herbicidal effect ALOMY [21] [%] | herbicidal effect ECHCG [26] [%] | ALOMY, herbicidal effect in percent (%) [27] [%] | ECHCG, herbicidal effect in percent (%) [28] [%] | herbicidal effect MATIN [30] [%] | other results |
| --- | --- | --- | --- | --- | --- | --- | --- | --- | --- | --- | --- | --- | --- | --- | --- | --- | --- | --- | --- | --- | --- |
| COc1ccccc1-c1nc2nc(SC)sc2cc1C [Example I-007] | 90 | 100 | 100 | 100 | 90 | 100 | 100 | 90 |  |  |  |  |  |  |  |  |  |  |  |  | herbicidal activity ABUTH [4]: 90% |
| Cc1cc2sc(S(C)(=O)=O)nc2nc1-c1ccccc1F [Example I-021] |  |  | 90 |  | 100 | 100 | 100 | 100 | 100 | 90 | 100 | 100 | 100 | 90 |  |  |  |  |  |  |  |
| CCc1cc2sc([S+](C)[O-])nc2nc1-c1ccccc1C (centres unmarked) [Example I-022] |  |  | 100 |  | 90 | 90 |  |  |  |  | 90 |  |  |  |  |  |  |  |  |  |  |
| C=Cc1cc2scnc2nc1-c1ccccc1F [Example I-072] | 100 | 90 | 100 | 90 | 90 | 90 | 100 | 100 | 100 | 100 | 90 | 100 | 100 | 100 | 90 | 100 | 100 | 100 | 100 | 100 | herbicidal effect POLCO [16]: 80%; herbicidal effect AMARE [17]: 80%; herbicidal activity ALOMY [18]: 100%; herbicidal activity SETVI [19]: 90%; herbicidal effect VERPE [22]: 80%; herbicidal effect SETVI [23]: 100%; herbicidal effect AMARE [24]: 80%; herbicidal effect LOLRI [25]: 100%; DIGSA, herbicidal effect in percent (%) [29]: 100% |
| CCc1cc2scnc2nc1-c1ccccc1OC [Example I-111] | 90 | 90 | 100 | 100 | 100 |  | 100 | 100 | 100 | 90 | 100 | 90 | 100 | 100 |  |  |  | 90 | 100 | 90 | herbicidal effect VERPE [31]: 80%; DIGSA, herbicidal effect in percent (%) [29]: 100% |
| Fc1cccc(-c2ccc3scnc3n2)c1 [Example I-118] | 90 |  | 90 |  |  | 100 | 100 | 100 | 100 |  | 100 | 90 | 100 |  |  |  |  |  |  | 90 | DIGSA, herbicidal effect in percent (%) [29]: 100% |
| CCc1cc2sc(S)nc2nc1-c1ccccc1C [Example I-158] | 90 |  | 90 |  |  | 100 |  |  | 100 |  | 90 | 90 |  |  |  |  |  |  | 100 |  |  |
| CCCc1cc2scnc2nc1-c1ccccc1F [Example I-185] | 90 |  | 100 |  | 90 |  |  | 100 |  | 90 | 90 |  | 100 | 90 | 90 | 90 | 100 |  | 100 | 90 | herbicidal effect VERPE [31]: 90%; herbicidal effect SETVI [32]: 90%; herbicidal effect POLCO [16]: 80%; herbicidal effect ECHCG [33]: 80%; herbicidal activity SETVI [19]: 90%; herbicidal effect SETVI [23]: 100%; herbicidal effect LOLRI [25]: 100% |
| Clc1cc2scnc2nc1-c1ccsc1 [Example I-191] | 100 | 90 |  |  | 90 | 90 | 100 | 100 | 100 | 100 | 100 | 90 | 100 | 90 | 100 | 90 | 100 | 100 | 100 | 90 | herbicidal effect ALOMY [34]: 80%; herbicidal effect ECHCG [33]: 90%; herbicidal activity ALOMY [18]: 100%; herbicidal activity ABUTH [4]: 90% |
